Where a name gives a salt, the structure may show the parent alone.
Legend:
[1] = Acute toxicity in mice, intraperitoneal (Table I); details: mouse, in vivo, ip, suspension in carboxymethylcellulose, observed one week
Description: The results are in Table I.

[2] = test system: carotidine arterial pressure; assay: Hypotensive activity in anesthetized rats, intravenous (Table II); type: in vivo, male rats of the Sprague-Dawley SPF strain; details: for % Variation in pressure: compared to initial carotid arterial pressure; for Duration of Activity: time for pressure to return to initial value
Description: The hypotensive activity was determined on male rats of the Sprague-Dawley SPF strain weighing about 300 g which had been anestesized with nembutal (50 mg/kg intraveinously). The product was administered intraveinously by the jugular vein and the carotidine arterial pressure was measured before and after the administration of the test product. Table II reports the variations expressed in percent of arterial pressure after administration of the test product as compared to the initial arterial pressure as well as the time necessary for the pressure to return to the initial value.

[3] = test system: arterial pressure measured at the rat's tail; assay: Antihypertensive activity in spontaneous hypertensive rats, oral (Table III); type: in vivo, spontaneous hypertendus male rats of the Okamoto strain
Description: The antihypertensive activity was determined on spontaneous hypertendus male rats of the Okamoto strain 8 weeks old and the test products were orally administered daily for 9 days. The arterial pressure was measured at the rat's tail by means of a pneumatic collar connected to an electronic transducer of pressure.

[4] = daily dose 50 mg/kg oral, 1st Day, 1 hr after 1st ad.
[5] = daily dose 50 mg/kg oral, 1st Day, 4 hr. after

SMILES | LD50 at 168 h [1] [mg/kg] | % Variation in pressure ([2]; 1 mg/kg) [%] | Duration of Activity ([2]; 1 mg/kg) [min] | % Pressure variation [3, 4] [%] | % Pressure variation [3, 5] [%] | other results
OC(CN1CCC(c2c[nH]c3ccccc23)CC1)C1COc2ccccc2O1 (racemic) [Example 1, (d,l) erythro α-(2,3-dihydro-1,4-benzodioxin-2-yl)-4-([1H]-indol-3-yl)-1-piperidine-ethanol hydrochloride] | ~100 | -25 | 45 | -11 | -12 | % Variation in pressure ([2]; 0.1 mg/kg): -10%; Duration of Activity ([2]; 0.1 mg/kg): 30 min; % Pressure variation ([3]; daily dose 50 mg/kg oral for 9 days, 10th Day, 24 hr. after 1st ad. (so in the source)): -15%
COc1ccc2[nH]cc(C3CCN(CC(O)C4COc5ccccc5O4)CC3)c2c1 (single isomer, unassigned) [Example 2 isomer A, isomer A of (dl) α-(2,3-dihydro-1,4-benzodioxin-2-yl)-4-(5-methoxy-[1H]-indol-3-yl)-1-piperidine-ethanol] | ~500 |  | 60 |  |  | % Variation in pressure ([2]; 1 mg/kg, listed as 2 isomer A): -14%
COc1ccc2[nH]cc(C3CCN(CC(O)C4COc5ccccc5O4)CC3)c2c1 (single isomer, unassigned) [Example 2 isomer B, isomer B of (dl) α-(2,3-dihydro-1,4-benzodioxin-2-yl)-4-(5-methoxy-[1H]-indol-3-yl)-1-piperidine-ethanol] |  |  | 60 |  |  | % Variation in pressure ([2]; 1 mg/kg, listed as 2 isomer B): -20%
COc1ccc2c(C3CCN(CC(O)C4COc5ccccc5O4)CC3)c(C)[nH]c2c1.Cl (stereo not drawn) [Example 3, α-(2,3-dihydro-1,4-benzodioxin-2-yl)-4-(6-methoxy-2-methyl-[1H]-indol-3-yl)-1-piperidine-ethanol hydrochloride] |  |  | 60 | -26 | -27 | % Variation in pressure ([2]; 10 mg/kg): -25%; Duration of Activity ([2]; 10 mg/kg): 60 min
OC(CN1CC=C(c2c[nH]c3ccccc23)CC1)C1COc2ccccc2O1 (stereo not drawn) [Example 4, α-(2,3-dihydro-1,4-benzodioxin-2-yl)-4-([1H]-indol-3-yl)-1,2,3,6-tetrahydro-1-pyridine-ethanol] |  |  |  | -10 | -18 | 
Cn1cc(C2CCN(CC(O)C3COc4ccccc4O3)CC2)c2ccccc21 (stereo not drawn) [Example 5, α-(2,3-dihydro-1,4-benzodioxin-2-yl)-4-(1-methyl-[1H]-indol-3-yl)-1-piperidine-ethanol] | ~250 | -10 | 30 |  |  | 

Reference: patent US4100291A, “Novel 1,4-benzodioxanes” (Roussel Uclaf, priority 1976, dated 1978)
